Consider 19 compounds from patent US9656988B2 (Pharmacyclics LLC, priority 2013, dated 2017).

The target of the test is BTK (Homo sapiens (Human), UniProt Q06187). The test is described as follows: Btk in vitro inhibitory activity (one of Method A TR-FRET, Method B electrophoretic mobility shift, Method C radiometric filter binding). The format is biochemical.
Where [1] appears, read: determined using one of the methods of Example 355a, 355b and 355c, read-out: BTK IC50.

Read-outs that look alike come from different tables or passages of the source.

BTK, sequence (Q06187 whole entry): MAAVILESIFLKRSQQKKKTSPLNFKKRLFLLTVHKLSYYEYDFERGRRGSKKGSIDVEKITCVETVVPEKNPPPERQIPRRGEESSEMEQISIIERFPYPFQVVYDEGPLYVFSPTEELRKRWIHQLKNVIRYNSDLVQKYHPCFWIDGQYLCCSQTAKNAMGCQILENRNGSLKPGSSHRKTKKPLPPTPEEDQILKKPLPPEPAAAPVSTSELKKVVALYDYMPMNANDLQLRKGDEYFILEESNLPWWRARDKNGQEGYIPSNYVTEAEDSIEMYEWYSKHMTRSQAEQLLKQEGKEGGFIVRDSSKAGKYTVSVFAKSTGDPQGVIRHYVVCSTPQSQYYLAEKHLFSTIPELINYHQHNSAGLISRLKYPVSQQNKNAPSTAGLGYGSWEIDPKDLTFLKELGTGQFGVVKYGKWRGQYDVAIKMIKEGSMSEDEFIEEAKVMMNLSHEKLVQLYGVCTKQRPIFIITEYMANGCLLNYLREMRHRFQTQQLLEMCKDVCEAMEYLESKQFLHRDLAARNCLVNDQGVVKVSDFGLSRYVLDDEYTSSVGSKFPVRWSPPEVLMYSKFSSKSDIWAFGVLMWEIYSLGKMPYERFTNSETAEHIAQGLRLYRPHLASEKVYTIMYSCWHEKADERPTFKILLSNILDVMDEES

Regarding `CN(C)C(=O)N1CC[C@@H]2CCN(c3cnc(C(N)=O)c(Nc4ccc(C5CCN(C6CCCC6)CC5)cc4)n3)C[C@@H]21` (racemic) [Example 292, (3aS,7aR)-6-(5-carbamoyl-6-(4-(1-cyclopentylpiperidin-4-yl)phenylamino)pyrazin-2-yl)-N,N-dimethyloctahydro-1H-pyrrolo[2,3-c]pyridine-1-carboxamide], the IC50 runs as follows: (Btk (IC50)) 0.01 to 0.1 µM; under setting [1], 0.01 to 0.1 µM.

With `COc1ccc(C(=O)N[C@@H]2CCCN(c3cnc(C(N)=O)c(Nc4ccc(C5CCNCC5)c(F)c4)n3)C2)cc1` [Example 163, (R)-3-(3-fluoro-4-(piperidin-4-yl)phenylamino)-5-(3-(4-methoxybenzamido)piperidin-1-yl)pyrazine-2-carboxamide], the IC50 runs as follows: under setting [1], under 0.01 µM; (read-out: Btk (IC50)) under 0.01 µM.

For `CN1CCC(c2ccc(Nc3nc(N4CCC[C@@H](NC(=O)N5CCCCC5)C4)cnc3C(N)=O)cc2)CC1` [Example 147, (R)-3-(4-(1-methylpiperidin-4-yl)phenylamino)-5-(3-(piperidine-1-carboxamido)piperidin-1-yl)pyrazine-2-carboxamide], the IC50 is under 0.01 µM under setting [1] and under 0.01 µM (read-out: Btk (IC50)).

As to `CN(C(=O)N[C@@H]1CCCN(c2cnc(C(N)=O)c(Nc3ccc(F)cc3)n2)C1)c1cc(Cl)cc(C(F)(F)F)c1` [Example 322, (R)-5-(3-(3-(3-chloro-5-(trifluoromethyl)phenyl)-3-methylureido)piperidin-1-yl)-3-(4-fluorophenylamino)pyrazine-2-carboxamide], the 50% inhibitory concentration (IC50) lay within 0.1 to 1 µM under setting [1] and 0.1 to 1 µM (read-out: Btk (IC50)).

Turning to `CCC(=O)N1CCC(C)(c2ccc(Nc3nc(N4CCC[C@@H](NC(=O)N(C)C)C4)cnc3C(N)=O)cc2)CC1` [Example 224], the 50% inhibitory concentration (IC50) under setting [1] is under 0.01 µM.

`COc1ccc(C(=O)N[C@@H]2CCCN(c3cnc(C(N)=O)c(Nc4ccc(C5CCOCC5)cc4)n3)C2)cc1` [Example 122, (R)-5-(3-(4-methoxybenzamido)piperidin-1-yl)-3-(4-(tetrahydro-2H-pyran-4-yl)phenylamino)pyrazine-2-carboxamide]: under setting [1], the IC50 was under 0.01 µM.

For the compound `NC(=O)c1nnc(N2CCC[C@@H](Oc3nccc4cc(C5CC5)cc(F)c34)C2)nc1Nc1ccc(C(=O)N2CCOCC2)cc1` [Example 48, (R)-3-(3-(6-cyclopropyl-8-fluoroisoquinolin-1-yloxy)piperidin-1-yl)-5-(4-(morpholine-4-carbonyl)phenylamino)-1,2,4-triazine-6-carboxamide], under setting [1], the IC50 was in the range of 0.1 to 1 µM.

Turning to `CN(C)C(=O)N[C@@H]1CCCN(c2cnc(C(N)=O)c(Nc3ccc(C4CCN(C5CCC5)CC4)cc3)n2)C1` [Example 175, (R)-3-(4-(1-cyclobutylpiperidin-4-yl)phenylamino)-5-(3-(3,3-dimethylureido)piperidin-1-yl)pyrazine-2-carboxamide], the concentration for half-maximal inhibition (IC50) is, setting by setting: under setting [1], under 0.01 µM; (read-out: Btk (IC50)) under 0.01 µM.

With `CN1CCN([C@@H]2CCCN(c3cnc(C(N)=O)c(Nc4ccc(C5(C)CCN(C(=O)C6CC6)CC5)cc4)n3)C2)C1=O` [Example 270, (R)-3-(4-(1-(cyclopropanecarbonyl)-4-methylpiperidin-4-yl)phenylamino)-5-(3-(3-methyl-2-oxoimidazolidin-1-yl)piperidin-1-yl)pyrazine-2-carboxamide], the IC50 by setting is: under setting [1], under 0.01 µM; (read-out: Btk (IC50)) under 0.01 µM.

As for `CN(C)C(=O)N[C@@H]1CCCN(c2cnc(C(N)=O)c(Nc3ccc(C4CCN(C5CCCCC5)CC4)cc3)n2)C1` [Example 210, (R)-3-(4-(1-cyclohexylpiperidin-4-yl)phenylamino)-5-(3-(3,3-dimethylureido)piperidin-1-yl)pyrazine-2-carboxamide], the IC50 under setting [1] was under 0.01 µM and the half-inhibitory concentration (IC50) (read-out: Btk (IC50)) is under 0.01 µM.

`C=CC(=O)N1CCC[C@@H](N(C)c2cnc(C(N)=O)c(Nc3ccc(C(=O)N4CCOCC4)cc3)n2)C1` [Example 74, (R)-5-((1-acryloylpiperidin-3-yl)(methyl)amino)-3-(4-(morpholine-4-carbonyl)phenylamino)pyrazine-2-carboxamide]: the IC50 under setting [1] was under 0.01 µM and the IC50 (read-out: Btk (IC50)) was under 0.01 µM.

Turning to `NC(=O)c1ncc(N2CCC[C@@H](NC(=O)c3ccc(Cl)cc3)C2)nc1Nc1ccc(C2CCN(C3CC3)CC2)cc1` [Example 311, (R)-5-(3-(4-chlorobenzamido)piperidin-1-yl)-3-(4-(1-cyclopropylpiperidin-4-yl)phenylamino)pyrazine-2-carboxamide], the half-inhibitory concentration (IC50) reads like this: under setting [1], under 0.01 µM; (read-out: Btk (IC50)) under 0.01 µM.

Take `CN(C)S(=O)(=O)N[C@@H]1CCCN(c2cnc(C(N)=O)c(Nc3ccc(C4CCN(C5CCCC5)CC4)cc3)n2)C1` [Example 302, (R)-3-(4-(1-cyclopentylpiperidin-4-yl)phenylamino)-5-(3-(N,N-dimethylsulfamoylamino)piperidin-1-yl)pyrazine-2-carboxamide]: the IC50 under setting [1] fell in the range of 0.01 to 0.1 µM.

In the case of `CN(C)C(=O)N(C)[C@@H]1CCCN(c2cnc(C(N)=O)c(Nc3ccc(N4CCS(=O)(=O)CC4)cc3)n2)C1` [Example 229, (R)-3-(4-(1,1-dioxothiomorpholino)phenylamino)-5-(3-(1,3,3-trimethylureido)piperidin-1-yl)pyrazine-2-carboxamide], the half-maximal inhibitory concentration (IC50) lay within 0.01 to 0.1 µM. Under setting [1], the IC50 lay within 0.01 to 0.1 µM.

Consider `CN(C(=O)N[C@@H]1CCCN(c2cnc(C(N)=O)c(Nc3ccc(C4(C(N)=O)CC4)cc3)n2)C1)c1cc(Cl)cc(C(F)(F)F)c1` [Example 324, (R)-3-(4-(1-carbamoylcyclopropyl)phenylamino)-5-(3-(3-(3-chloro-5-(trifluoromethyl)phenyl)-3-methylureido)piperidin-1-yl)pyrazine-2-carboxamide], for which the half-maximal inhibitory concentration (IC50) under setting [1] lay in the range of 0.01 to 0.1 µM and the IC50 (read-out: Btk (IC50)) is 0.01 to 0.1 µM.

For the compound `CN(C)C(=O)N[C@@H]1CCCN(c2cnc(C(N)=O)c(Nc3ccc(C4CCN(S(C)(=O)=O)CC4)cc3)n2)C1` [Example 172, (R)-5-(3-(3,3-dimethylureido)piperidin-1-yl)-3-(4-(1-(methylsulfonyl)piperidin-4-yl)phenylamino)pyrazine-2-carboxamide], the IC50 was under 0.01 µM under setting [1] and under 0.01 µM (read-out: Btk (IC50)).

As to `CC(C)(C)c1ccc(C(=O)N[C@@H]2CCCN(c3nnc(C(N)=O)c(Nc4ccc(S(C)(=O)=O)cc4)n3)C2)cc1` [Example 55, (R)-3-(3-(4-tert-butylbenzamido)piperidin-1-yl)-5-(4-(methylsulfonyl)phenylamino)-1,2,4-triazine-6-carboxamide], the IC50 lay within 0.01 to 0.1 µM. Also, under setting [1], the IC50 was under 0.01 µM.

On to `CN1CCN([C@@H]2CCCN(c3cnc(C(N)=O)c(Nc4ccc(C5(C(F)(F)F)CC5)cc4)n3)C2)C1=O` [Example 262, (R)-5-(3-(3-methyl-2-oxoimidazolidin-1-yl)piperidin-1-yl)-3-(4-(1-(trifluoromethyl)cyclopropyl)phenylamino)pyrazine-2-carboxamide], for which, under setting [1], the IC50 was in the range of 0.01 to 0.1 µM.

With `NC(=O)c1nnc(N2CCC[C@@H](NC(=O)c3ccccc3)C2)nc1Nc1ccc(C(=O)N2CCOCC2)cc1` [Example 5, (R)-3-(3-benzamidopiperidin-1-yl)-5-(4-(morpholine-4-carbonyl)phenylamino)-1,2,4-triazine-6-carboxamide], the IC50 under setting [1] was under 0.01 µM.
